Results as given in PubChem BioAssay (NCI).
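Briefly, cells in 96-well plates were exposed to five compound concentrations for 48 h, and endpoints were estimated by linear interpolation. At the TGI there is no net growth.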

Legend:
Test in all cases: NCI anticancer screen, dose series, 48 h
[1] = test system: RPMI-8226 leukemia
[2] = test system: CCRF-CEM leukemia
[3] = test system: SF-539 CNS
[4] = test system: SK-MEL-2 melanoma
[5] = test system: HOP-62 NSCLC
[6] = test system: MDA-N
[7] = test system: A498 renal
[8] = test system: NCI-H522 lung
[9] = test system: HCC-2998 colon
[10] = test system: SK-OV-3 ovarian
[11] = test system: NCI-H460 lung
[12] = test system: SF-268 CNS
[13] = test system: NCI/ADR-RES ovarian
[14] = test system: SR leukemia

SMILES | TGI [1] [µM] | TGI [2] [µM] | TGI [3] [µM] | TGI [4] [µM] | TGI [5] [µM] | TGI [6] [µM] | TGI [7] [µM] | TGI [8] [µM] | TGI [9] [µM] | TGI [10] [µM] | TGI [11] [µM] | TGI [12] [µM] | TGI [13] [µM] | TGI [14] [µM]
O=c1oc2ccccc2c(O)c1C(c1ccc2ccccc2c1)c1c(O)c2ccccc2oc1=O | > 100 | > 100 | 68.9 | > 100 | > 100 | 68.9 | > 100 | 48.5 | 32.8 | > 100 | 73.2 | 50.8 | 38.5 | –
CC(=O)/C(=C/N1C(=O)CC(=O)NC1=S)C(=O)Nc1ccccc1C | – | – | > 100 | > 100 | 64.2 | > 100 | > 100 | – | 84.7 | > 100 | > 100 | > 100 | > 100 | –
NC(=Nc1ccc(Cl)c(Cl)c1)c1ccccc1N | 39.3 | > 100 | – | 86.8 | > 100 | 53.4 | 55.1 | 32.6 | 34.2 | > 100 | > 100 | > 100 | 95.5 | –
Cc1ccc(-c2cnc(NC3OC(COC(=O)c4ccccc4)C(OC(=O)c4ccccc4)C(OC(=O)c4ccccc4)C3OC(=O)c3ccccc3)s2)cc1 (stereo not given) | > 100 | – | – | > 100 | > 100 | > 100 | – | > 100 | – | > 100 | > 100 | > 100 | > 100 | > 100
COc1cc(/C=C2\CCC(C)c3c2nc(N)c(C#N)c3-c2cc(OC)c(OC)c(OC)c2)cc(OC)c1OC (stereo not given) | > 100 | > 100 | – | > 100 | > 100 | > 100 | > 100 | – | – | > 100 | – | > 100 | – | > 100
O=S(=O)([N-]c1nc2ccccc2nc1-[n+]1ccccc1)c1ccccc1 | > 100 | 30.7 | > 100 | > 100 | > 100 | – | – | > 100 | > 100 | > 100 | > 100 | > 100 | > 100 | 77.3
O=C1CC(n2cccc2)c2cc(Br)sc21 (stereo not given) | 69.9 | 60 | > 100 | > 100 | > 100 | > 100 | > 100 | 75.5 | – | > 100 | > 100 | > 100 | > 100 | > 100
COc1ccc(-c2cc(=O)c3c(O)c(OC)c(O)cc3o2)cc1O | > 23.6 | > 31.8 | 21.9 | > 43.5 | > 100 | > 100 | 65.8 | 9.53 | > 100 | > 93.8 | 43.6 | > 100 | > 21.2 | –
Clc1cccc(Cl)c1C1SCc2nc3cc4ccccc4cc3n21 (stereo not given) | > 100 | > 100 | – | > 100 | > 100 | > 100 | – | – | > 100 | > 100 | > 100 | > 100 | > 100 | –
Cc1nc2c(n1CCCl)C(=O)c1ccccc1C2=O | > 100 | > 100 | > 100 | – | 62.4 | 32.6 | – | 49.6 | 67.5 | 79.6 | 65.9 | > 100 | 63.6 | > 100
O=c1c2cc([N+](=O)[O-])cnc2sn1-c1ccc(Oc2ccccc2)cc1 | > 100 | > 100 | > 100 | > 100 | > 100 | > 100 | – | 34.1 | > 100 | 87.5 | > 100 | > 100 | > 100 | > 100
Cn1c(=S)[nH]c2c(Cl)cc(Cl)cc2c1=O | – | 64.7 | > 100 | > 100 | > 100 | > 100 | – | > 100 | > 100 | > 100 | > 100 | > 100 | > 100 | –
C=CCN1C(=O)N/C(=C\c2ccc(Cl)cc2)C1=O | > 100 | > 100 | > 100 | – | > 100 | > 100 | > 100 | > 100 | – | > 100 | > 100 | > 100 | > 100 | –
Cc1cc(Cl)ccc1NC(=O)/C(CC(=O)CC(c1ccccc1)c1c(O)c2ccccc2oc1=O)=N\O (stereo not given) | – | > 100 | > 100 | > 100 | > 100 | > 100 | – | > 100 | > 100 | > 100 | > 100 | > 100 | > 100 | –
CC/C(=C/OC)P1(=O)OC(C)(C)CN1C(C)(C)C (stereo not given) | > 100 | – | > 100 | > 100 | > 100 | – | > 100 | – | > 100 | > 100 | > 100 | > 100 | > 100 | > 100
CN=C1Nc2ccccc2C(=S)N2CSC[C@@H]12 | > 100 | – | > 100 | > 100 | > 100 | – | > 100 | > 100 | > 100 | > 100 | > 100 | > 100 | > 100 | > 100
[N-]=[N+]=Nc1cc(=O)n(-c2ccccc2)c(=O)n1-c1ccccc1 | > 100 | > 100 | > 100 | > 100 | > 100 | – | – | > 100 | – | > 100 | – | > 100 | > 100 | > 100
CCOC(=O)c1c(-c2ccc(Cl)cc2)c(C#N)c(=S)n(C2OC(CO)C(O)C(O)C2O)c1-c1ccccc1 (stereo not given) | > 100 | 53.9 | 35 | 50.2 | 36 | 49.9 | – | – | 81.9 | 96.2 | 87.5 | 55.9 | > 100 | > 100
